Reference: patent publication US10934303B2, “Aryl ethene derivative and pharmaceutical composition containing same as active ingredient” (priority 2016, dated 2021)
Like-named read-outs stand apart in the source and are kept apart here.

Key:
[1] = in vivo; assay type: in vivo; conditions: rat; for Cmax: read-out: Cmax
Experimental: An oral administration group fasts the day before.
Blood of each animal is collected at 0 hour.
Into a tail vein of an intravenous administration group (IV), a drug is injected at a dose of 1 mg/kg (syringe).
To an oral administration group (PO), a drug is orally administered at a dose of 10 mg/kg (oral zondec)
After administration, blood of the intravenous administration group was collected through a jugular vein 8 times at 0.08, 0.25, 0.5, 1, 2, 4, 6, and 8 hours. One collected blood amount is 400 to 500 ul.
After administration, blood of the oral administration group was collected through a jugular vein 6 times at 0.25, 0.5, 1, 4, 6 and 8 hours. One collected blood amount is 400 to 500 ul.
Supernatant plasma is collected by a centrifuge.
The supernatant plasma was injected into a LC-MS/MS system and the drug is analyzed.

[2] = 1 μM, 30 minutes, 37° C., NADPH
Experimental: 2) Microsomal Stability Evaluation
(§2) Four liver microsomes (Human, Dog, Rat, Mouse 0.5 mg/ml) with a 0.1 M phosphate buffer solution (pH 7.4), and the arylethene derivative of the present invention were added to a concentration of 1 μM, culturing was performed at 37° C. for 5 minutes in advance, a NADPH regeneration system solution was added thereto, and culturing was performed at 37° C. for 30 minutes. Thereafter, in order to complete the reaction, an acetonitrile solution containing an internal standard material (chlorpropamide) was added thereto, centrifugation (14,000 rpm, 4° C.) was performed for 5 minutes, and a supernatant was injected into a LC-MS/MS system to analyze the substrate drug, thereby evaluating metabolism stability to the arylethene derivative of the present invention.

[3] = 1 μM, 30 minutes, 37° C., NADPH; remark: listed apart in the source
Experimental: 2) Microsomal Stability Evaluation
as §2

[4] = 1 μM, 30 minutes, 37° C., NADPH; remark: listed apart in the source
[5] = 1 μM, 30 minutes, 37° C., NADPH; remark: listed apart in the source
Experimental: 2) Microsomal Stability Evaluation
as §2

[6] = molecular target: GST-bound ERR gamma ligand-binding domain (LBD) (Homo sapiens (Human), UniProt P62508); test: ERRγ binding assay (inverse agonist assay), TR-FRET; conditions: TR-FRET, PGC1a coactivator; read-out: Binding Assay, IC50 ERRγ
Sequence of GST-bound ERR gamma ligand-binding domain (LBD) (P62508 233-457): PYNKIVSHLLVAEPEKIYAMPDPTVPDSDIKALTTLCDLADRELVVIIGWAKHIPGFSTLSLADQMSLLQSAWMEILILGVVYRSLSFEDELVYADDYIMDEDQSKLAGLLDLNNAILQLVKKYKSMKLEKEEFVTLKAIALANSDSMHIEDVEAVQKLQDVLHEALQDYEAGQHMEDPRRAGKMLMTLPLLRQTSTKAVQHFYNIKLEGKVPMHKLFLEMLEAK
Experimental: 1) ERRγ Binding Assay (Inverse Agonist Assay)
(§3) The arylethene derivative of the present invention was sequentially added to a 384 well plate from a concentration of 10 μM to a final concentration of two-fold dilution. […] After all reagents were added, a reaction was carried out with gentle shaking at 20° C. for 1 hour, and after the reaction, a binding activity was measured by a TR-FRET method.

[7] = tested on: ERRγ; assay type: cell-based
[8] = in vitro; assay type: in vitro ADME; parameters: Papp at 5 h: dose or concentration left out as unconfirmed; conditions: PBS pH 7.4, 25° C.; for Papp at 5 h: PAMPA, read-out: Permeability Pampa; for Permeability Pampa: 5 hours
Experimental: 3) Parallel Artificial Membrane Permeability Assay (PAMPA) Evaluation
PAMPA is a method which has been developed for testing cell membrane permeability of a material in a test tube, and has been performed using a lipid tri-layer PVDF membrane available from Corning Gentest (NY, US), the used reagents were all purchased from Sigma (MO, US). First, a test material is diluted in PBS (pH 7.4) to a final concentration of 10 mM, 300 mL of the solution is added to the bottom well of a 96-transwell equipped with a PVDF membrane, and 200 mL of PBS is added to the upper well. Then, a plate is reacted at 25° C. for 5 hours, 20 mL of the solution in each well is transferred to a new container, and 80 mL of acetonitrile containing an internal standard material (4 mM chloropropamide) is added thereto. A concentration of the material in the solution is analyzed using LC-MS/MS (ThermoFisher Scientific, MO, US), and the transmittance of the material is calculated according to the equation reported in the reference document.

[9] = molecular target: GST-bound ERR alpha LBD (Homo sapiens (Human), UniProt P11474); conditions: TR-FRET, PGC1a coactivator; read-out: Binding Assay, IC50 ERRα
Sequence of GST-bound ERR alpha LBD (P11474 193-421): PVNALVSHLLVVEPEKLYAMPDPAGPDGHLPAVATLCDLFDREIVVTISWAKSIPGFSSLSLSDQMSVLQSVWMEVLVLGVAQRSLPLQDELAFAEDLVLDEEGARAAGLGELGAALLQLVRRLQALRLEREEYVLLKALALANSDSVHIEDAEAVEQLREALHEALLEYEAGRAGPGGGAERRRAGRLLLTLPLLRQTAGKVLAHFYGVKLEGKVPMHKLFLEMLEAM
Experimental: as §3

[10] = molecular target: GST-bound ER alpha ligand-binding domain (LBD) (Homo sapiens (Human), UniProt P03372); test: biochemical; conditions: TR-FRET, beta-estradiol 4 nM as agonist; read-out: Binding Assay, IC50 ERα
Sequence of GST-bound ER alpha ligand-binding domain (LBD) (P03372 whole entry, looked up, the tested form may be a part): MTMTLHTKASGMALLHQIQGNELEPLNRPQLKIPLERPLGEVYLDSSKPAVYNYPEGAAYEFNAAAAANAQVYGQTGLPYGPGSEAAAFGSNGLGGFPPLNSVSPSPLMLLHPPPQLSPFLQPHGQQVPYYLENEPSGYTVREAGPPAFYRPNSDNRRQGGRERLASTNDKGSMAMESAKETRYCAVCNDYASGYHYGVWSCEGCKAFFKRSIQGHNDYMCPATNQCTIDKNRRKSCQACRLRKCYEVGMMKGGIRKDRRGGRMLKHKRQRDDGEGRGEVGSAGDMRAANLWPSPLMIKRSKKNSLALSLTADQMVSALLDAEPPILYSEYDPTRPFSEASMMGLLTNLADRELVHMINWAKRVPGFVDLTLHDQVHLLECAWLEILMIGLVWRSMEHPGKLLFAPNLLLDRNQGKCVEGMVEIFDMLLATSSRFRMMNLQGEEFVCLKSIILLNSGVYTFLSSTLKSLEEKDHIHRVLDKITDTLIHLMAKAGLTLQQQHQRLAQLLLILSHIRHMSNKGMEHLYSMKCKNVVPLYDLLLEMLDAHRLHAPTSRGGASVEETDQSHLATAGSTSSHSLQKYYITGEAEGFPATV
Experimental: as §3

[11] = molecular target: CYP1A2 (Homo sapiens (Human), UniProt P05177); test: Cytochrome P450 activity inhibition, CYP1A2; assay type: in vitro ADME; conditions: 10 μM, human liver microsomes, Phenacetin substrate
Sequence of CYP1A2 (P05177 whole entry): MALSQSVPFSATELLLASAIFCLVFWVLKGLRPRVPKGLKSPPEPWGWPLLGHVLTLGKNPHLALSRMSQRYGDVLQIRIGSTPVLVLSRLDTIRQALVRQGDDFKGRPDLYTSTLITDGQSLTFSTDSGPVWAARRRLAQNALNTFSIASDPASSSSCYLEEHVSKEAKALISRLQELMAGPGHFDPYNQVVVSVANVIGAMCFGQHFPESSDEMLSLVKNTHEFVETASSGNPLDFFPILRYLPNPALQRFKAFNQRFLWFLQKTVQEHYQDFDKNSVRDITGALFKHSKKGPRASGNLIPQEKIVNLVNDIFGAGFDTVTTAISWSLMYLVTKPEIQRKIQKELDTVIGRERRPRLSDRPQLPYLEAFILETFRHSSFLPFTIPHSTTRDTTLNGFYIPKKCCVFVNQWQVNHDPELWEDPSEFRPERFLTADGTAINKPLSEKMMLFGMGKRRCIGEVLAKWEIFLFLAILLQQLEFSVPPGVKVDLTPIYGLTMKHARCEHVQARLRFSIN
Excerpt: (§1) 1) Cytochrome P450 (CYP450) Activity Inhibition Evaluation

[12] = molecular target: CYP2C9 (Homo sapiens (Human), UniProt P11712); test: Cytochrome P450 activity inhibition, CYP2C9; assay type: in vitro ADME; conditions: 10 μM, human liver microsomes, Diclofenac substrate
Sequence of CYP2C9 (P11712 whole entry): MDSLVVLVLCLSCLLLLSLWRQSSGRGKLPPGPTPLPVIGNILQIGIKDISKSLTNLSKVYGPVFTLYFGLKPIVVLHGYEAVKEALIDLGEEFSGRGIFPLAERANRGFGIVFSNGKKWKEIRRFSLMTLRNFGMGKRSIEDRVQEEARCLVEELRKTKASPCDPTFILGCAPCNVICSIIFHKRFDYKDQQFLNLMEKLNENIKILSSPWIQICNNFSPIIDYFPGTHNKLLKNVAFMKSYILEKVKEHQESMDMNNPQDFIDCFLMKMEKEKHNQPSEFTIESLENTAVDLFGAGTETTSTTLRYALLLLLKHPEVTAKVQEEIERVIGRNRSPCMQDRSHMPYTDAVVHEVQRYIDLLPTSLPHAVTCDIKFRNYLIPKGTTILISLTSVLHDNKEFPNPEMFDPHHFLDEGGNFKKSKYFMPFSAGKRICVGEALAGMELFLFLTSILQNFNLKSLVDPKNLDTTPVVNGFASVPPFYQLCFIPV
Excerpt: as §1

[13] = molecular target: CYP2C19 (Homo sapiens (Human), UniProt P33261); test: Cytochrome P450 activity inhibition, CYP2C19; assay type: in vitro ADME; conditions: 10 μM, human liver microsomes, S-mephenytoin substrate
Sequence of CYP2C19 (P33261 whole entry): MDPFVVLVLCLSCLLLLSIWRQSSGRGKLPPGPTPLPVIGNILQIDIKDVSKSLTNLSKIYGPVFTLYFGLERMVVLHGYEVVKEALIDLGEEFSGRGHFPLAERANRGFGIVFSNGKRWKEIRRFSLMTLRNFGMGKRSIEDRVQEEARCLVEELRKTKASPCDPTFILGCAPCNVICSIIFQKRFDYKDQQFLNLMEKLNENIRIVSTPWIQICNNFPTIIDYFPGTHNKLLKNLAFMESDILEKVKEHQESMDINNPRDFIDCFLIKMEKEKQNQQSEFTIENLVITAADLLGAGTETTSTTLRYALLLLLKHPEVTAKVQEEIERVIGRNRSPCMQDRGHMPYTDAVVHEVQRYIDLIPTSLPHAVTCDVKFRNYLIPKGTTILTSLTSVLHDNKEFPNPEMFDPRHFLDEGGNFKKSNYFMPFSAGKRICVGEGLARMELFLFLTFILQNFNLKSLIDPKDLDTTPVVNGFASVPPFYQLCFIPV
Excerpt: as §1

[14] = molecular target: CYP2D6 (Homo sapiens (Human), UniProt P10635); test: Cytochrome P450 activity inhibition, CYP2D6; assay type: in vitro ADME; conditions: 10 μM, human liver microsomes, Dextromethorphan substrate
Sequence of CYP2D6 (P10635 whole entry): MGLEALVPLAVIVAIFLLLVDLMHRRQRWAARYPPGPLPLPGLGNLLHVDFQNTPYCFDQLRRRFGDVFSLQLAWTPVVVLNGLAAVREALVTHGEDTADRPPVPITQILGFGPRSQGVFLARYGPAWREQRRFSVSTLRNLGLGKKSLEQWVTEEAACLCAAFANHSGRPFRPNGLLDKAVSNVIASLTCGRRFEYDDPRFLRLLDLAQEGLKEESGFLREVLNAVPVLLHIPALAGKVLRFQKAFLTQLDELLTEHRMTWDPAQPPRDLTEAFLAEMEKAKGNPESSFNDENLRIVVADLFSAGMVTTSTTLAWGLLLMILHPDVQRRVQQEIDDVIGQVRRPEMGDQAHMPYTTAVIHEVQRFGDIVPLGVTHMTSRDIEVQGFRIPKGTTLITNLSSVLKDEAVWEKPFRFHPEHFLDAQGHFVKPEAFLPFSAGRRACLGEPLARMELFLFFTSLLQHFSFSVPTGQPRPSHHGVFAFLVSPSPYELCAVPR
Excerpt: as §1

[15] = molecular target: CYP3A4 (Homo sapiens (Human), UniProt P08684); test: Cytochrome P450 activity inhibition, CYP3A4; assay type: in vitro ADME; conditions: 10 μM, human liver microsomes, Midazolam substrate
Sequence of CYP3A4 (P08684 whole entry): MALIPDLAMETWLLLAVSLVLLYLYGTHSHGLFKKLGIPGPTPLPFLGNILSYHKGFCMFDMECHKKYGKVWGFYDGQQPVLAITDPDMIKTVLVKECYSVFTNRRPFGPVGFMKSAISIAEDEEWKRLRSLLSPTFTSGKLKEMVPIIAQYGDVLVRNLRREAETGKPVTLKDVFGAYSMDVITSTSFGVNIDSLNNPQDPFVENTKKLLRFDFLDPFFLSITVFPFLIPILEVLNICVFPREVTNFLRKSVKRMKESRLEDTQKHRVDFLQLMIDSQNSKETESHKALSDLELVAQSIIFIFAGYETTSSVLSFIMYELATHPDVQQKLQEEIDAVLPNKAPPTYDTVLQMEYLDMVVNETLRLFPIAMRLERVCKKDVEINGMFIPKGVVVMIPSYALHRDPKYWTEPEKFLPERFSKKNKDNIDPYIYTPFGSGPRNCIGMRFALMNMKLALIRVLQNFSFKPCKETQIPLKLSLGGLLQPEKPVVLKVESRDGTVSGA
Excerpt: as §1

[16] = activity relative to reference compound GSK5182, 10 μM

SMILES | MS(Microsomal Stability) (%) human [2] [%] | MS(Microsomal Stability) (%) dog [3] [%] | MS(Microsomal Stability) (%) rat [4] [%] | MS(Microsomal Stability) (%) mouse [5] [%] | CYP inhibition (% of control) 1A2 [11] | CYP inhibition (% of control) 2C9 [12] | CYP inhibition (% of control) 2C19 [13] | CYP inhibition (% of control) 2D6 [14] | CYP inhibition (% of control) 3A4 [15] | Permeability Pampa [8] | further results
CC(C)N1CCC(c2ccc(/C(=C(/CCCO)c3ccccc3)c3ccc(O)cc3)cc2)C1 (racemic) [Compound 22s] | 34.9 | 35.4 | 75.6 | 21.7 | – | – | – | – | – | – | AUCall ([1]; IV, 1 mg/kg): 0.44 μMh; Vss ([1]; IV, 1 mg/kg): 13.2 L/kg; t1/2 ([1]; IV, 1 mg/kg): 2.2 h; AUCINF ([1]; PO, 10 mg/kg): 0.11 μMh; AUCall ([1]; PO, 10 mg/kg): 0.09 μMh; BA ([1]; PO, 10 mg/kg): 18.5%; Tmax ([1]; PO, 10 mg/kg): 1.3 h; Cmax ([1]; PO, 10 mg/kg): 20 nM
CC(C)N1CCC(c2ccc(/C(=C(/CCCO)c3ccccc3)c3cccc(O)c3)cc2)C1 (racemic) [Compound 22u] | 40.0 | 10.0 | 44.3 | 17.2 | – | – | – | – | – | – | –
CN1CCC[C@H]1CCOc1ccc(/C(=C(/CCCO)c2ccccc2)c2ccc(O)cc2)cc1 [Compound 6j] | – | – | – | – | – | – | – | – | – | – | IC50 [6]: 0.034 µM; Functional Assay at 10 μM (% of control), Cpds ([7]; 10 μM, 24 hours, AD293): 2.44 % of control; Functional Assay, Cpds/Ref 5182 [7, 16]: 0.77
CN1CCC[C@@H]1CCOc1ccc(/C(=C(/CCCO)c2ccccc2)c2ccc(O)cc2)cc1 [Compound 6k] | – | – | – | – | – | – | – | – | – | – | IC50 [6]: 0.026 µM; Functional Assay at 10 μM (% of control), Cpds ([7]; 10 μM, 24 hours, AD293): 2.5 % of control; Functional Assay, Cpds/Ref 5182 [7, 16]: 0.79; Papp at 5 h [8]: 0.12 ×10⁻⁶ cm/s
Cl.Cl.OCCC/C(=C(\c1ccc(O)cc1)c1ccc(OCCN2CCNCC2)cc1)c1ccccc1 [Compound 7a, (Z)-4-(5-hydroxy-2-phenyl-1-(4-(2-(piperazin-1-yl)ethoxy)phenyl)pent-1-en-1-yl)phenol 2hydrochloride salt] | 49.0 | 64.7 | 59.5 | 32.1 | – | – | – | – | – | – | Functional Assay at 10 μM (% of control), Cpds [7]: 2.71 % of control; Functional Assay, Cpds/Ref 5182 [7]: 0.86
CN1CCC[C@H]1COc1ccc(/C(=C(/CCCO)c2ccccc2)c2ccc(Br)cc2)cc1 [Compound 13b] | 61.2 | – | 66.2 | – | – | – | – | – | – | – | IC50 [6]: 0.064 µM; Functional Assay at 10 μM (% of control), Cpds [7]: 1.5 % of control; Functional Assay, Cpds/Ref 5182 [7]: 0.48; Papp at 5 h [8]: 0.93 ×10⁻⁶ cm/s
CC(C)N1CCN(c2ccc(/C(=C(/CCCO)c3ccccc3)c3ccc(Br)cc3)cc2)CC1 [Compound 18e] | – | – | – | – | >100 % of control | 91.3 % of control | 84.6 % of control | >100 % of control | 84 % of control | 1.11 10^−6 cm/s | IC50 [9]: > 10 µM; IC50 [10]: > 10 µM; Functional Assay at 10 μM (% of control), Cpds ([7]; 10 μM, 24 hours, AD293): 2.6 % of control; Functional Assay, Cpds/Ref 5182 [7, 16]: 0.89; AUCINF ([1]; IV, 1 mg/kg): 0.06 μMh; AUCall ([1]; IV, 1 mg/kg): 0.06 μMh; Vss ([1]; IV, 1 mg/kg): 39.1 L/kg; t1/2 ([1]; IV, 1 mg/kg): 0.8 h; AUCINF ([1]; PO, 10 mg/kg): 0.09 μMh; AUCall ([1]; PO, 10 mg/kg): 0.07 μMh; BA ([1]; PO, 10 mg/kg): 11.5%; Tmax ([1]; PO, 10 mg/kg): 2.8 h; Cmax ([1]; PO, 10 mg/kg): 10 nM
CC(C)N1CCN(c2ccc(/C(=C(/CCCO)c3ccccc3)c3cccc(O)c3)cc2)CC1 [Compound 18k] | 65.4 | 61.2 | 54.9 | 26.9 | – | – | – | – | – | 1.29 10^−6 cm/s | Functional Assay at 10 μM (% of control), Cpds ([7]; 10 μM, 24 hours, AD293): 1.08 % of control; Functional Assay, Cpds/Ref 5182 [7, 16]: 1.14
Cc1ccc(/C(=C(\CCCO)c2ccccc2)c2ccc(C3CCNCC3)cc2)cc1 [Compound 20k] | 93.6 | 84.9 | 89.0 | 81.3 | 79.3 % of control | 87.6 % of control | 78.9 % of control | 96.2 % of control | 83.6 % of control | – | –
CCN1CCC(c2ccc(C(=C(CCCO)c3ccccc3)c3cccc(O)c3)cc2)CC1 [Compound 22ae] | 48.4 | 33.7 | 32.2 | 21.5 | 59.4 % of control | >100 % of control | >100 % of control | 68.4 % of control | 81.5 % of control | – | –
Cc1ccc(/C(=C(\CCCO)c2ccccc2)c2ccc(C3CCN(C)CC3)cc2)cc1 [Compound 22f] | 97.0 | 78.1 | 80.0 | 66.3 | – | – | – | – | – | 3.96 10^−6 cm/s | –
CC(C)N1CCC(c2ccc(/C(=C(/CCCO)c3ccccc3)c3cccc(O)c3)cc2)CC1 [Compound 22h] | 46.9 | 22.4 | 43.8 | 16.2 | >100 % of control | 97.9 % of control | >100 % of control | 69.1 % of control | 72.2 % of control | – | –
OCCC/C(=C(\c1ccc(O)cc1)c1ccc(C2CCN(C3CC3)CC2)cc1)c1ccccc1 [Compound 22i] | 36.0 | 91.5 | 92.6 | 83.6 | – | – | – | – | – | 0.35 10^−6 cm/s | AUCINF ([1]; IV, 1 mg/kg): 0.54 μMh; AUCall ([1]; IV, 1 mg/kg): 0.49 μMh; Vss ([1]; IV, 1 mg/kg): 11.7 L/kg; t1/2 ([1]; IV, 1 mg/kg): 3.0 h; AUCINF ([1]; PO, 10 mg/kg): 4.52 μMh; AUCall ([1]; PO, 10 mg/kg): 2.24 μMh; BA ([1]; PO, 10 mg/kg): 45.3%; Tmax ([1]; PO, 10 mg/kg): 2.2 h; Cmax ([1]; PO, 10 mg/kg): 380 nM
CC(C)N1CCC(c2ccc(/C(=C(/CCCO)c3ccccc3)c3ccc(O)cc3)cc2)CC1 [Compound 22k] | 59.7 | 59.6 | 69.0 | 23.4 | >100 % of control | 97 % of control | >100 % of control | 73.7 % of control | 74.7 % of control | – | IC50 [9]: > 10 µM; IC50 [10]: 1.38 µM; Functional Assay at 10 μM (% of control), Cpds ([7]; 10 μM, 24 hours, AD293): 0.77 % of control; Functional Assay, Cpds/Ref 5182 [7, 16]: 0.83
OCCC/C(=C(/c1ccc(C2=CCN(C3CC3)CC2)cc1)c1cccc(O)c1)c1ccccc1 [Compound 22l] | 71.8 | 67.9 | 53.4 | 25.8 | 96.2 % of control | 88.3 % of control | 97 % of control | 99 % of control | 80.7 % of control | – | –
CC(C)N1CCN(c2ccc(/C(=C(/CCCO)c3ccccc3)c3ccc(N)cc3)cc2)CC1 [Compound 26b] | 49.1 | 40.6 | 31.4 | 14.3 | 99.2 % of control | 92.5 % of control | 98.7 % of control | 81.9 % of control | 60.9 % of control | – | –
CC(=O)Nc1ccc(/C(=C(\CCCO)c2ccccc2)c2ccc(C3CCN(C4CC4)CC3)cc2)cc1 [Compound 27c] | 83.5 | 81.2 | 79.4 | 42.1 | – | – | – | – | – | 0.68 10^−6 cm/s | –
CC(=O)Nc1ccc(/C(=C(\CCCOC(C)=O)c2ccccc2)c2ccc(C3CCN(C4CC4)CC3)cc2)cc1 [Compound 27d] | 63.7 | 43.8 | 67.6 | 17.6 | – | – | – | – | – | 0.34 10^−6 cm/s | –
